What all share (format): biochemical
The target in one assay is SIRT6 (Homo sapiens, UniProt Q8N6T7). Description: Sirtuin inhibition assay (HPLC), SIRT6. Details: host or cells: E. coli (inferred from b12). Conditions: substrate H3K9Ac; 500 μM NAD+, 500 μM peptide, 10 μM sirtuin, pH 7.5, 37 °C; NI = Not inhibited. Here is the method:
(§1) Plasmids of SIRT1 (full length), SIRT2 (38-356), SIRT3 (102-399), and SIRT5 (34-302) were generous gifts from Dr. Hening Lin (Cornell University, Ithaca, NY, USA). SIRT6 was a gift from Cheryl Arrowsmith (Addgene plasmid #28271). The proteins were expressed and purified according to previously published protocols. The identity of the protein was confirmed by tryptic digestion followed by LC-MS/MS analysis performed at the Vermont Genetic Network (VGN) Proteomics Facility. Protein concentrations were determined by Bradford assay (Thermo Fisher Scientific, Rockford, IL, USA).
A typical reaction contained 500 μM NAD^+ and 500 μM peptide substrate (H3K9Ac for SIRT2, SIRT3 and SIRT6, p53K382Ac for SIRT1 and SIRT5) of varying concentrations of a small molecule probe in 100 mM phosphate buffer pH 7.5. The reactions were initiated by the addition of 10 μM of sirtuin and were incubated at 37 °C before being quenched by 8 μL of 10% TFA. The incubation time was controlled so that the conversion of substrate was less than 15%. The samples were then injected on an HPLC fitted to a Macherey-Nagel Nucleosil C18 column. NAD^+, NAM and AADPR (acetyl-ADP-ribose) peaks were resolved using a gradient of 0 to 20% methanol in 20 mM ammonium acetate. Chromatograms were analyzed at 260 nm. Reactions were quantified by integrating areas of peaks corresponding to NAD^+ and AADPR. […]

In a further assay the target is T1, SIRT1 (Homo sapiens, UniProt Q96EB6).
T1 construct: Plasmids of SIRT1 (full length); made in house
T1 sequence (Q96EB6 1-747): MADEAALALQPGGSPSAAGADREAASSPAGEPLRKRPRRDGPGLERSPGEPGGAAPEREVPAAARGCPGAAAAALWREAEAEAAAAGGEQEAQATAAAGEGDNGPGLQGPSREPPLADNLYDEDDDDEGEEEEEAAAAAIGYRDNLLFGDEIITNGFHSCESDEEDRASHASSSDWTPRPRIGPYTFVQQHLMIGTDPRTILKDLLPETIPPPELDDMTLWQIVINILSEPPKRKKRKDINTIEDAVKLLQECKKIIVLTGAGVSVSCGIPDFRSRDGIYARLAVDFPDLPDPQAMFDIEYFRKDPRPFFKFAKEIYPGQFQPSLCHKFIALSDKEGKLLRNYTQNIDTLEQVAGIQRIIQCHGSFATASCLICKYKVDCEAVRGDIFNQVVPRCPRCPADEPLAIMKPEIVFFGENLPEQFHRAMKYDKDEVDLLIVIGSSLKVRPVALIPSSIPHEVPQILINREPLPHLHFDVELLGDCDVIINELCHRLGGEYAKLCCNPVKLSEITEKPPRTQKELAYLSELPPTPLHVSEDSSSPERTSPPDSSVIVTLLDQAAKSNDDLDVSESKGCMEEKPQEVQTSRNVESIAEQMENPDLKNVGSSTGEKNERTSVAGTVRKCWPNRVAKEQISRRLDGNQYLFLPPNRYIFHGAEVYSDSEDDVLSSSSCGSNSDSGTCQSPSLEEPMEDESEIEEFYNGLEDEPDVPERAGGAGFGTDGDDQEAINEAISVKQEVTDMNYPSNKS
Briefly: Sirtuin inhibition assay (HPLC), SIRT1. Conditions: substrate p53K382Ac; 500 μM NAD+, 500 μM peptide, 10 μM sirtuin, pH 7.5, 37 °C. On the procedure:
as §1
A typical reaction contained 500 μM NAD^+ and 500 μM peptide substrate (H3K9Ac for SIRT2, SIRT3 and SIRT6, p53K382Ac for SIRT1 and SIRT5) of varying concentrations of a small molecule probe in 100 mM phosphate buffer pH 7.5. The reactions were initiated by the addition of 10 μM of sirtuin and were incubated at 37 °C before being quenched by 8 μL of 10% TFA. The incubation time was controlled so that the conversion of substrate was less than 15%. The samples were then injected on an HPLC fitted to a Macherey-Nagel Nucleosil C18 column. NAD^+, NAM and AADPR (acetyl-ADP-ribose) peaks were resolved using a gradient of 0 to 20% methanol in 20 mM ammonium acetate. Chromatograms were analyzed at 260 nm. Reactions were quantified by integrating areas of peaks corresponding to NAD^+ and AADPR. Rates were plotted as a function of small molecule probe concentration, and points were fitted to the following equation:ν(%) = ν0(%) − [ν0(%)(10^x)/(10^x + IC50)](1) where ν(%) represents the turnover rate expressed as percent enzymatic activity remaining, and ν0(%) represents the uninhibited turnover rate expressed as an enzymatic activity of 100%. The variable x represents the log[probe] in nanomolar. IC50 values were derived from this equation.

For the next assay, the target named is T2, SIRT2 (Homo sapiens, UniProt Q8IXJ6).
T2 construct: expressed in transfected cells; host or cells: HEK293
T2 sequence (Q8IXJ6 1-389): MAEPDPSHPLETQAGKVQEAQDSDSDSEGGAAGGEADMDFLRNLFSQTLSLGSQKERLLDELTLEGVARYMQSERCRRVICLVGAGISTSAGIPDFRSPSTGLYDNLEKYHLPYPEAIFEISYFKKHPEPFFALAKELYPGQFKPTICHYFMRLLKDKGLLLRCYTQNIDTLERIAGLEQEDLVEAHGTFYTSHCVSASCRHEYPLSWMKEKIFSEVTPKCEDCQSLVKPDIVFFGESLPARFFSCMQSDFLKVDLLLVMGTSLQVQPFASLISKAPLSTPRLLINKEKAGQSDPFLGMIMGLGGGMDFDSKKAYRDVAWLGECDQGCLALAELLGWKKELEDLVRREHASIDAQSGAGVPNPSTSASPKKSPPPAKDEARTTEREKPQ
Description: Cell lysate labeling, SIRT2-overexpressing HEK293. Conditions: 10 μM probe. On the procedure: Remarkably, probe 2C was also able to label individual sirtuin isoforms in cell lysates. HEK293 cells overexpressing human SIRT2 were lysed, and the lysate was subjected to the labeling by 10 μM probe 2C.
Cells were harvested and lysed with RIPA buffer (Thermo Fisher Scientific, Rockford, IL, USA) supplemented with protease inhibitor cocktail (Thermo Fisher Scientific, Rockford, IL, USA). Protein concentration was determined by Bradford assay. A typical labeling experiment contained 4 to 24 μg of protein, 500 μM NAD^+, and 10 μM probe in 100 mM phosphate buffer pH 7.5. The photoaffinity labeling, “click” conjugation to fluorescent dye and visualization were similar to the protocols for labeling recombinant sirtuins as described above.

SIRT6, sequence (Q8N6T7 whole entry): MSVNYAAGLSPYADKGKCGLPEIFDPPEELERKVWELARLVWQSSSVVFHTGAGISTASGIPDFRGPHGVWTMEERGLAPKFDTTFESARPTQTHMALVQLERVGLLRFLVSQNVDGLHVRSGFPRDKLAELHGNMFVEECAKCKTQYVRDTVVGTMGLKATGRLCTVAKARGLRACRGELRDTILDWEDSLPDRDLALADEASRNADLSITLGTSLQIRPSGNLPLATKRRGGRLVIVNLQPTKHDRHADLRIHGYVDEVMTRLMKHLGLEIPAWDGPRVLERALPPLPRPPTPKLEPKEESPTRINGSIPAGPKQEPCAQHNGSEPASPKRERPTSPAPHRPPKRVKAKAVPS

A word on the IC50: it is the concentration that gives 50% inhibition. Low values mean greater potency in that assay, high ones weaker potency in that assay. Turning to `C#CCCCC1(CCC(=O)N[C@@H](CCCCNC(=S)CCC(=O)O)C(=O)N[C@@H](C)C(=O)N[C@@H](C)C(=O)OC)N=N1` [Probe 2B], the IC50 against SIRT6 was above 5 mM; at SIRT1, above 2 mM.
Consider `C#CCCCC1(CCC(=O)N[C@@H](CCCCNC(=S)CCCCCCCCCCCCC)C(=O)N[C@@H](C)C(=O)N[C@@H](C)C(=O)OC)N=N1` [Probe 2C], for which the “amount of cell lysate in which labeling was still observed” value at SIRT2 worked out at 4 µg. Also, the “labeling of SIRT2 in cell lysate” value at SIRT2 (lysate of HEK293 cells overexpressing human SIRT2) is “clean and selective labeling of SIRT2”.

The record behind these values is publication PMC7792806, “Development of Second Generation Activity-Based Chemical Probes for Sirtuins” (Molecules, 2020).
